Data reported in patent US9932392B2, “Prevention of infection” (priority 2012, dated 2018).

Experiments:
[1] = test system: toxinogenic C. difficile strain 10465; assay: Primary prevention of C. difficile infection (mouse model); format: in vivo, C57BL/6 mice; settings: po gavage day -1 to 3 (5 doses), FIG. 6
Method: (§1) C57BL/6 mice were housed in cages with free access to chow (Purina 5000) and tap water. Animals were treated with a mixture of oral antibiotics (kanamycin, gentamicin, colistin, metronidazole, and vancomycin) for 3 days as previously described (Chen et al (2008) Gastroenterology 135: 1984-92). Two days later, they were given parenteral clindamycin phosphate (10 mG/kg s.c.) [Day −1]. One day later [Day 0] they were challenged by gavage with 0.5×10^5 cfu of toxinogenic C. difficile strain 10465. A moderate to fulminant colitis developed 1 to 5 days after the administration of C. difficile. Untreated, this progresses rapidly into severe and fatal colitis in the majority of animals. The test compounds (suspended in carbonate buffer) were administered to groups at the dosage levels as shown in Table 1 (n=10 per group except group 4). Dosing (by gavage) started 1 day before C. difficile challenge [Day −1] and continued daily for 5 days.
(§2) Animals were weighed daily and observed three times daily for morbidity and presence or absence of severe CDI with diarrhea. Animals judged to be in a moribund state [extended period of weight loss progressing to an emaciated state, anorexia for 24-48 hrs, prolonged lethargy (more than 3 days), signs of paralysis, skin erosions or trauma, hunched posture, distended abdomen] were euthanized by a single injection of sodium pentobarbital. […]

[2] = test system: toxinogenic C. difficile strain 10465; assay: Prevention of recurrence of C. difficile infection after vancomycin (mouse model); format: in vivo, C57BL/6 mice; settings: vancomycin day -1 to 3 (5 doses), then Ig 400 mG/kg po day 4 to 8 (5 doses); observation until day 28; FIG. 7
Method: as §1, §2

Compound: CN[C@H](CC(C)C)C(=O)N[C@H]1C(=O)N[C@@H](CC(N)=O)C(=O)N[C@H]2C(=O)N[C@H]3C(=O)N[C@H](C(=O)N[C@H](C(=O)O)c4cc(O)cc(O)c4-c4cc3ccc4O)[C@H](O)c3ccc(c(Cl)c3)Oc3cc2cc(c3O[C@@H]2O[C@H](CO)[C@@H](O)[C@H](O)[C@H]2O[C@H]2C[C@](C)(N)[C@H](O)[C@H](C)O2)Oc2ccc(cc2Cl)[C@H]1O [Vancomycin]
- fraction of animals with recurrence of C. difficile infection after stopping treatment [1]: 60%
- survival rate ([1]; vancomycin 50 mG/kg, IgA 400 mG/kg): 40%
- rate of recurrence of infection (animals) [2]: 6 out of 10
